{"source": "paper PMC5372522", "about": "“Bioavailability Comparison of Nine Bioselenocompounds In Vitro and In Vivo” (International Journal of Molecular Sciences, 2017)", "key": {"[1]": {"set-up": "method as in PMID 6076213", "conditions": "selenyl group versus sulfhydryl group; cited from earlier work"}, "Caco-2 cells [2]": {"tested_on": "Caco-2 cells", "assay": "In vitro permeability assay using Caco-2 cell monolayers", "type": "in vitro ADME, human", "conditions": "for permeability in the presence of Met: with 10 mM Met versus without", "experimental": "The bioselenocompounds were evaluated and compared in accordance with the standard protocol of the in vitro permeability assay using Caco-2 cells.\nFigure 3 Permeability from the apical side to the basolateral side of Caco-2 cells. The permeability of the nine bioselenocompounds was compared (a). A 500 μL aliquot of fresh medium containing 1 μg Se/mL of each bioselenocompound was poured into the insert and the medium in the lower chamber was collected after 90 min. Values and bars are means ± SD for 3 wells. Statistical analysis was performed by the Tukey test. […] The effects of Met on the permeability of SeMet and MeSeCys were evaluated (b). Hatched and solid bars represent with and without 10 mM Met, respectively. Points and bars are means ± SD for 3 wells. Statistical analysis include the one-way analysis of variance followed by the Student’s t-test. The level of significance was set at p < 0.05, and is indicated by an asterisk (*).\nConfluent Caco-2 cells at the cell density of around 20,000 cells/cm^2 were harvested by trypsinization and suspended in basal medium (Corning, Corning, NY, USA) containing MITO+ Serum Extender (Corning) at the cell density of 4 × 10^5 cells/mL. A 0.5 mL aliquot of the cell suspension was seeded on the inserts of a Falcon 24-Multiwell Insert System (Corning). The inserts were transferred onto a 24-well plate that contained 1 mL of basal medium, and incubation was carried out for 24 h. Then, the basal medium was carefully removed from the wells and the inserts, and 1.0 and 0.5 mL aliquots of the differentiation medium (Entero-STIM) containing MITO+ Serum Extender (Corning) were added to the wells and the inserts, respectively. The plate was incubated for another 3 days to induce the formation of a monolayer of differentiated Caco-2 cells. The medium was carefully removed from the inserts and the inserts were washed with transport buffer (HBSS + 10 mM HEPES, pH 7.4). Then, a 350 μL aliquot of each Se compound solution in transport buffer or this solution with 10 mM L-methionine (Wako) was added to the insert chamber. These inserts were transferred onto a plate and a 50 μL aliquot was withdrawn from the chamber of each insert for measurement of the initial concentration of the donor chamber. One milliliter of transfer buffer was added to the plate wells and the plate was incubated on an orbital shaker at 37 °C for 90 min in a CO2 incubator. The transport buffer in the lower chamber was collected to determine Se concentration 90 min after the incubation. Se concentrations were measured by an inductively coupled plasma mass spectrometer (ICP-MS, Agilent 7700cx, Agilent, Hachiouji, Japan). The Se compound solution in the chamber of each insert was removed and a 300 μL aliquot of 300 μM Lucifer Yellow (LY) solution was added to the upper chamber. Then, the concentration of LY that permeated the lower chamber was determined by a fluorescence photometer (excitation wavelength: 485 nm, emission wavelength: 538 nm). Monolayers producing 0.3%–2.0% LY flux were recognized as intact monolayers of differentiated Caco-2 cells. Monolayers with flux exceeding 2.0% were excluded from the experiment."}, "HepG2 cells": {"tested_on": "HepG2 cells", "assay": "Cell viability / proliferation assay (CellTiter 96 Aqueous One) in HepG2 cells", "conditions": "for effect on cell proliferation: 24 h exposure; for dose at which cytotoxicity / reduced cell viability was seen / effect on cell viability / proliferation: 48 h exposure; for dose from which toxicity was dose-dependent: 24 and 48 h exposure", "experimental": "(§1) Caco-2 cells were used in the in vitro permeability assay in the next experiment, and the cytotoxicity of bioselenocompounds was assayed 6 h after exposure to evaluate the harmful effects of bioselenocompounds on the cells. The cytotoxicity and/or proliferative effects of bioselenocompounds on HepG2 cells were analyzed 24 and 48 h after exposure.\n(§2) A human colon carcinoma cell line (Caco-2) and a human hepatocyte carcinoma cell line (HepG2) were obtained from Riken BioResource Center (Wako, Japan). The composition of the passaging medium for Caco-2 or HepG2 was Eagle’s Minimum Essential Medium (MEM) with 20% FBS, 1% non-essential amino acid (NEAA), and 1% penicillin-streptomycin, or Dulbecco’s Modified Eagle’s Medium (DMEM) with 10% FBS and 1% penicillin-streptomycin, respectively. Caco-2 cells were seeded on a 96-well plate at 5500 cells/well and incubation was carried out for 2 days. […] Cell viability was determined by the CellTiter 96® Aqueous One Solution Cell Proliferation Assay (Promega, Madison, WI, USA) based on mitochondrial respiratory activity. HepG2 cells were seeded on a 96-well plate at 5000 cells/well and incubation was carried out for 1 day. Then, the cells were exposed to a Se compound, and cell viability was determined by using the same protocol as that mentioned above."}, "Caco-2 cells [3]": {"tested_on": "Caco-2 cells", "assay": "Cell viability assay (CellTiter 96 Aqueous One) in Caco-2 cells", "conditions": "6 h exposure; for dose at or above which cell viability was significantly reduced: p < 0.05", "experimental": "as §1, §2"}, "Caco-2 and HepG2 cells": {"tested_on": "Caco-2 and HepG2 cells", "assay": "Proliferative effect under standard culture conditions for Caco-2 and HepG2 cells", "type": "cell-based, human", "conditions": "data not shown", "experimental": "as §2"}, "[4]": {"set-up": "method as in PMID 26243445", "conditions": "cited from earlier work"}, "[5]": {"tested_on": "selenoprotein P (SELENOP)", "assay": "Bioavailability in vivo: recovery of serum SELENOP in Se-deficient rats by LC-ICP-MS", "conditions": "oral 10 μg Se/rat once a day for 2 days, serum 24 h after administration", "experimental": "(§3) Two major serum selenoproteins were detected by LC-ICP-MS (Figure 4a). The peak detected at the retention time of 11.0 min was assigned to extracellular glutathione peroxidase (GPX3), and the peak at the retention time of 13.5 min was assigned to selenoprotein P (SELENOP) according to our previous literature. The abbreviations of the selenoproteins (GPX3 and SELENOP) were adopted in accordance with the latest nomenclature. We used the recovery amounts of serum selenoproteins in Se-deficient rats as the index of Se bioavailability when a selenocompound was administered to an Se-deficient rat. […] Sera sampled from rats administered each bioselenocompound were analyzed for the recovery of Se in the form of selenoproteins by LC-ICP-MS, and their bioavailabilities, namely, the assimilation of Se into GPX3 and SELENOP, are summarized in Figure 4c,d, respectively. Coinciding with a previous study, SELENOP was more efficiently recovered than GPX3 in the Se-deficient rats 24 h after the repletion of the bioselenocompounds except for TMSe^+. There were no significant differences in the recovery of GPX3 among all the bioselenocompounds except for TMSe^+ (Figure 4c). As SELENOP was more efficiently recovered, the recovery of SELENOP by all the bioselenocompounds except TMSe^+ was more obvious than that of GPX3 (Figure 4d). […] Therefore, there were no significant differences in the bioavailability in vivo among all the bioselenocompounds except TMSe^+.\n(§4) Specific pathogen free (SPF) male Wistar rats (4 weeks of age) were purchased from Japan SLC (Shizuoka, Japan) and were housed in a humidity-controlled room maintained at 25 ± 2 °C with a 12 h light-dark cycle. The rats were fed a commercial diet (MF, Oriental Yeast Co., Ltd., Tokyo, Japan) and tap water ad libitum. After a one-week acclimation period, diet and water were changed to a Se-deficient diet (Oriental Yeast) and Milli-Q water (18.3 MΩ·cm), respectively. The rat fed the Se-deficient diet and the Milli-Q water for 3 weeks was used as an Se-deficient rat. The rats continuously fed the commercial diet and tap water served as the positive control.\n(§5) The Se-deficient rats were orally administered each Se compound in saline at a dose of 10 μg Se/rat once a day for 2 consecutive days. The saline-administered rats served as the negative control. All the rats were sacrificed 24 h after administration by exsanguination under anesthesia. Non-heparinized blood was collected and clotted blood was centrifuged at 1600× g for 10 min to obtain serum. A 20 μL aliquot of the serum was applied to an HPLC coupled with an ICP-MS to analyze the distribution of Se. […]"}, "[6]": {"tested_on": "extracellular glutathione peroxidase (GPX3)", "assay": "Bioavailability in vivo: recovery of serum GPX3 in Se-deficient rats by LC-ICP-MS", "conditions": "oral 10 μg Se/rat once a day for 2 days, serum 24 h after administration", "experimental": "as §3, §4, §5"}, "[7]": {"conditions": "Caco-2 monolayer, 1 μg Se/mL, 90 min, mean ± SD for 3 wells"}}, "data": [{"compound": "N[C@@H](CS)C(=O)O", "note": "[Cys]", "values": [{"measurement": "pKa", "setting": "[1]", "value": 8.3}]}, {"compound": "C[Se]C[C@H](N)C(=O)O", "note": "[MeSeCys, Se-Methylseleno-L-cysteine]", "values": [{"measurement": "permeability in the presence of Met", "setting": "Caco-2 cells [2]; Caco-2 monolayer", "value": "reduced"}, {"measurement": "effect on cell proliferation", "setting": "HepG2 cells", "value": "stimulated the proliferation"}, {"measurement": "dose at which cytotoxicity / reduced cell viability was seen", "setting": "HepG2 cells", "value": "≥ 40", "unit": "μg Se/mL"}, {"measurement": "effect on cell viability / proliferation", "setting": "HepG2 cells", "value": "still induced the cell proliferation at low doses"}, {"measurement": "dose from which cell viability was significantly increased (proliferation)", "setting": "Caco-2 cells [3]; dose-dependent", "value": "≥ 0.8", "unit": "μg Se/mL"}]}, {"compound": "CSCC[C@H](N)C(=O)O", "note": "[Met, L-methionine]", "values": [{"measurement": "proliferative effects", "setting": "Caco-2 and HepG2 cells", "value": "no proliferative effects"}]}, {"compound": "N#C[Se-].[K+]", "note": "[SeCN^−, potassium selenocyanate]", "values": [{"measurement": "toxicity relative to selenite", "setting": "[4]", "value": "less toxic than selenite"}, {"measurement": "recovery of serum SELENOP (assimilation of Se)", "setting": "[5]", "value": "comparable to selenite"}, {"measurement": "percentage permeation", "setting": "Caco-2 cells [2]; [7]", "value": "3.8% ± 0.44%"}, {"measurement": "recovery of serum GPX3 (assimilation of Se)", "setting": "[6]", "value": "comparable to selenite"}, {"measurement": "dose at which cytotoxicity / reduced cell viability was seen", "setting": "HepG2 cells", "value": 80, "unit": "μg Se/mL"}]}, {"compound": "N[C@@H](C[Se][Se]C[C@H](N)C(=O)O)C(=O)O", "note": "[SeCys2, L-selenocystine]", "values": [{"measurement": "dose from which toxicity was dose-dependent", "setting": "HepG2 cells", "value": "≥ 0.4", "unit": "μg Se/mL"}, {"measurement": "dose at or above which cell viability was significantly reduced", "setting": "Caco-2 cells [3]", "value": "≥ 0.8", "unit": "μg Se/mL"}]}, {"compound": "N[C@@H](C[SeH])C(=O)O", "note": "[SeCys, selenocysteine]", "values": [{"measurement": "pKa", "setting": "[1]", "value": 5.2}]}, {"compound": "C[Se]CC[C@H](N)C(=O)O", "note": "[SeMet, seleno-L-methionine]", "values": [{"measurement": "permeability in the presence of Met", "setting": "Caco-2 cells [2]; Caco-2 monolayer", "value": "reduced"}, {"measurement": "effect on cell proliferation", "setting": "HepG2 cells", "value": "stimulated the proliferation"}, {"measurement": "effect on cell viability / proliferation", "setting": "HepG2 cells", "value": "marginal cytotoxicity rather than a proliferative effect"}]}, {"compound": "C[Se]C1OC(CO)C(O)C(O)C1NC(C)=O", "note": "(stereo not drawn) [SeSug1, Se-methylseleno-N-acetylgalactosamine]", "values": [{"measurement": "recovery of serum SELENOP (assimilation of Se)", "setting": "[5]", "value": "equivalent effect to selenite"}, {"measurement": "recovery of serum GPX3 (assimilation of Se)", "setting": "[6]", "value": "equivalent effect to selenite"}]}, {"compound": "C[Se+](C)C.[I-]", "note": "[TMSe^+, Trimethylselenonium iodide]", "values": [{"measurement": "recovery of serum SELENOP (assimilation of Se)", "setting": "[5]", "value": "did not have any apparent effects"}, {"measurement": "percentage permeation", "setting": "Caco-2 cells [2]; Caco-2", "value": "3% ± 0.42%"}, {"measurement": "recovery of serum GPX3 (assimilation of Se)", "setting": "[6]", "value": "did not have any apparent effects"}]}, {"compound": "O=[Se]([O-])[O-].[Na+].[Na+]", "note": "[selenite, Sodium selenite]", "values": [{"measurement": "recovery of serum SELENOP (assimilation of Se)", "setting": "[5]", "value": "recovery of both selenoproteins was observed"}, {"measurement": "percentage permeation", "setting": "Caco-2 cells [2]; [7]", "value": "3.4% ± 0.066%"}, {"measurement": "recovery of serum GPX3 (assimilation of Se)", "setting": "[6]", "value": "recovery of both selenoproteins was observed"}, {"measurement": "dose from which toxicity was dose-dependent", "setting": "HepG2 cells", "value": "≥ 0.8", "unit": "μg Se/mL"}, {"measurement": "dose at or above which cell viability was significantly reduced", "setting": "Caco-2 cells [3]", "value": "≥ 8.0", "unit": "μg Se/mL"}]}, {"compound": "Lucifer Yellow [LY, reference compound]", "values": [{"measurement": "percentage permeation", "setting": "Caco-2 cells [2]; Caco-2", "value": "0.81% ± 0.36%"}]}, {"compound": "S-methylcysteine [MeCys]", "values": [{"measurement": "proliferative effects", "setting": "Caco-2 and HepG2 cells", "value": "no proliferative effects"}]}]}
